The nature of this assay: Estrogen receptor binding affinity using [3H]estradiol in a competitive radioreceptor binding assay.

The molecule `CCC(c1ccc(O)cc1)C(CSCCCCCCCNS(=O)(=O)c1cccc2c(N(C)C)cccc12)c1ccc(O)cc1` (stereo unspecified) registered a relative binding affinity (RBA) of 2.6. The value for `CCC(c1ccc(O)cc1)C(CSCCNc1ccc([N+](=O)[O-])c2nonc12)c1ccc(O)cc1` (stereo unspecified) was 0.85; that for `CCC(c1ccc(O)cc1)C(CC)c1ccc(O)c(CCCOCc2ccccc2)c1` (stereo unspecified) was 5; that for `CCC(c1ccc(O)cc1)C(CSCCCCCNc1ccc([N+](=O)[O-])c2nonc12)c1ccc(O)cc1` (stereo unspecified) was 3.5. The value for `CCC(c1ccc(O)cc1)C(CC)c1ccc(O)c(CCCN2C(=O)c3cccc([N+](=O)[O-])c3C2=O)c1` (stereo unspecified) was 3; that for `CCCCSCCC(c1ccc(O)cc1)C(CC)c1ccc(O)cc1` (stereo unspecified) was 23.4.

`CCC(c1ccc(O)cc1)C(COCCOCCCl)c1ccc(O)cc1` (stereo unspecified): the relative binding affinity (RBA) is 6.7. `CCC(c1ccc(O)cc1)C(C(=O)OC)c1ccc(O)cc1` (stereo unspecified) yielded a relative binding affinity (RBA) of 69. The value for `CCC(c1ccc(O)cc1)C(CSCCCCCCCNc1ccc([N+](=O)[O-])c2nonc12)c1ccc(O)cc1` (stereo unspecified) was 3.4; that for `CCC(c1ccc(O)cc1)C(CSCCCCNc1ccc([N+](=O)[O-])c2nonc12)c1ccc(O)cc1` (stereo unspecified) was 3.9. The value for `CCC(c1ccc(O)cc1)C(CC)c1ccc(O)c(N=[N+]=[N-])c1` (stereo unspecified) was 69. Molecule `CCC(c1ccc(O)cc1)C(CC(=O)OC)c1ccc(O)cc1` (stereo unspecified) showed a relative binding affinity (RBA) of 20.

In turn, `C=CCc1cc(C(CC)C(CC)c2ccc(O)cc2)ccc1O` (stereo unspecified) showed a relative binding affinity (RBA) of 54. Take `CCC(c1ccc(O)cc1)C(CC)c1ccc(O)c(CCCN2C(=O)c3ccccc3C2=O)c1` (stereo unspecified): the relative binding affinity (RBA) worked out at 5.4. The value for `CCCCCOC(=O)CC(c1ccc(O)cc1)C(CC)c1ccc(O)cc1` (stereo unspecified) was 4.2; that for `CCC(c1ccc(O)cc1)C(CSCCCNc1ccc([N+](=O)[O-])c2nonc12)c1ccc(O)cc1` (stereo unspecified) was 4.3; that for `CCC(c1ccc(O)cc1)C(CO)c1ccc(O)cc1` (stereo unspecified) was 8.9. For the molecule `CCC(c1ccc(O)cc1)C(CC)c1ccc(O)c(CCCOC)c1` (stereo unspecified), the relative binding affinity (RBA) was determined as 13.2.

Molecule `CCC(c1ccc(O)cc1)C(CC)c1ccc(O)c(CCCNc2ccc([N+](=O)[O-])c3nonc23)c1` (stereo unspecified) showed a relative binding affinity (RBA) of 1.5. The value for `CCC(c1ccc(O)cc1)C(C)c1ccc(O)cc1` (stereo unspecified) was 133.

In the case of `CCC(c1ccc(O)cc1)C(CSCCCCCCNc1ccc([N+](=O)[O-])c2nonc12)c1ccc(O)cc1` (stereo unspecified), the relative binding affinity (RBA) worked out at 2.9. The value for `CCC(c1ccc(O)cc1)C(CC)c1ccc(O)c(CCCOc2ccc([N+](=O)[O-])cc2[N+](=O)[O-])c1` (stereo unspecified) was 1.7. The value for `CCC(c1ccc(O)cc1)C(CSCCCCCCCN1C(=O)c2ccccc2C1=O)c1ccc(O)cc1` (stereo unspecified) was 1.6.

`CCC(c1ccc(O)cc1)C(CCOCCOCCCl)c1ccc(O)cc1` (stereo unspecified) came in with a relative binding affinity (RBA) of 16.6. In turn, `CCCCCOC(=O)C(c1ccc(O)cc1)C(CC)c1ccc(O)cc1` (stereo unspecified) came in with a relative binding affinity (RBA) of 39. The value for `CCC(c1ccc(O)cc1)C(CSCCCCN1C(=O)c2ccccc2C1=O)c1ccc(O)cc1` (stereo unspecified) was 3.6; that for `CCC(c1ccc(O)cc1)C(CC)c1ccc(O)c(CCCNS(=O)(=O)c2cccc3c(N(C)C)cccc23)c1` (stereo unspecified) was 1.3. The value for `CCC(c1ccc(O)cc1)C(CC)c1ccc(O)c(CCCNc2ccc([N+](=O)[O-])cc2[N+](=O)[O-])c1` (stereo unspecified) was 1. The value for `CCC(c1ccc(O)cc1)C(CC)c1ccc(O)c(I)c1` (stereo unspecified) was 37; that for `CCC(c1ccc(O)cc1)C(CCI)c1ccc(O)cc1` (stereo unspecified) was 60; that for `CCCCSCCCc1cc(C(CC)C(CC)c2ccc(O)cc2)ccc1O` (stereo unspecified) was 3.6.

`CCC(c1ccc(O)cc1)C(CC)c1ccc(O)c(CCCO)c1` (stereo unspecified): the relative binding affinity (RBA) is 12. The value for `CCCCSCC(c1ccc(O)cc1)C(CC)c1ccc(O)cc1` (stereo unspecified) was 61.6. Molecule `CCC(c1ccc(O)cc1)C(CI)c1ccc(O)cc1` (stereo unspecified) showed a relative binding affinity (RBA) of 172. Molecule `CCC(c1ccc(O)cc1)C(CC)c1ccc(O)c(CCCN2C(=O)c3cccc(N)c3C2=O)c1` (stereo unspecified) yielded a relative binding affinity (RBA) of 7.4. `CCC(c1ccc(O)cc1)C(CCO)c1ccc(O)cc1` (stereo unspecified) yielded a relative binding affinity (RBA) of 16.2.
